# System: Plasmodium falciparum
# Test: MMV: IC50 determined against P. falciparum Dd2-luc strain using a Malaria Sybr Green I Fluorescence assay. Starting conditions were 1% trophozoite synchronised parasites at 2% haematocrit. Fluorescence detection completed after 48hr incubation at 37 degrees C under 1% O2, 3% CO2 and balance N2.
# Assay type: functional, organism-based
# Conditions: Dd2, 48 h
row,IC50,SMILES
1,272 nM,COc1ccc(CCn2c(=N)c(C(=O)NCc3cccnc3)cc3c(=O)n4cccc(C)c4nc32)cc1
2,1100 nM,COc1ccc2nc(C)cc(Nc3ccccc3O)c2c1
3,885 nM,FC(F)(F)c1cccc(Nc2nc(-c3ccccc3)nc3ncccc23)c1
4,297 nM,Cc1cc(C)c2c(c1)OCN(Cc1ccccc1Cl)C2
5,1540 nM,COc1cc(-c2nc(-c3ccccc3)c(-c3ccccc3)[nH]2)cc(OC)c1O
6,1260 nM,Cc1cc(N2CCCC2)nc(Nc2ccc(NC(=O)CCc3ccccc3)cc2)n1
7,614 nM,COc1ccc(C(=O)Nc2ccc3nc(N4CCCCC4)cc(C)c3c2)cc1OC
8,1870 nM,COc1ccc2nc(N)nc(C)c2c1
9,652 nM,COCCNCC(O)Cn1c2ccc(Cl)cc2c2cc(Cl)ccc21 (stereo unspecified)
10,1160 nM,CCCN(CCC)CCCNC(=O)c1cc2c(-c3ccc(OC)c(OC)c3)nn(C)c2s1
11,1000 nM,Oc1ccc(Cl)cc1CNc1nc2ccccc2[nH]1
12,335 nM,Fc1ccc2[nH]c3c(NCCCN4CCOCC4)ncnc3c2c1
13,2370 nM,Nc1nc(Nc2cccc(F)c2)nc2ccccc12
14,1690 nM,COc1ccc2c(c1OC)C(=O)N1c3ccccc3N=C(c3ccc(C)cc3)CC21 (stereo unspecified)
15,1830 nM,O=C(Nc1ccc(F)c(Cl)c1)Nc1ccc(Cl)c(Cl)c1
16,1220 nM,O=C(NC1CCN(Cc2ccccc2)CC1)c1cc(-c2cccnc2)nc2ccc(Cl)cc12
17,941 nM,COc1ccc2nc(C)cc(Nc3cccc(O)c3)c2c1
18,1180 nM,CCOC(=O)c1cnc2ccc(Cl)cc2c1NCCCN(C)C
19,940 nM,COc1cccc(C(=O)NC(c2ccc(C)cc2)c2cc(Cl)c3cccnc3c2O)c1 (stereo unspecified)
20,680 nM,CC(C)CNC(=O)c1c(N)n(CCc2ccccc2F)c2nc3ccccc3nc12
21,975 nM,COCCN(C(=O)Cc1cccs1)C(C(=O)NCc1ccc(OC)cc1)c1ccc(C(C)C)cc1 (stereo unspecified)
22,3110 nM,COc1cccc(Nc2nc(N)c3ccccc3n2)c1
23,832 nM,COc1cccc(C(=O)Nc2ccc(-c3nc4ccccc4[nH]3)cc2)c1
24,2340 nM,COc1ccc(C2C(C(=O)Nc3cccc(OC)c3)c3ccccc3C(=O)N2C2CCCCC2)cc1 (stereo unspecified)
25,373 nM,CCN(CC)CCNc1ncnc2c1[nH]c1ccc(Cl)cc12

# Second part, the compound before the results:
row,SMILES,IC50
1,Oc1ccccc1CN1CCN(C(c2ccccc2)c2ccccc2)CC1,959 nM
2,c1ccc2c(NCCc3c[nH]c4ccccc34)c3ccccc3nc2c1,200 nM
3,O=c1c2c([nH]c3ccccc13)CCCC2,876 nM
4,Oc1ccc(C(=C(Cl)Cl)c2ccc(O)cc2)cc1,1910 nM
5,CC(O)(c1ccc(Cl)cc1)C(CN1CCCCC1)c1ccccc1 (stereo unspecified),314 nM
6,CC1CCCCN1CCCNC(=O)c1ccc2c(c1)sc1nc(-c3ccc(F)cc3)cn12 (stereo unspecified),559 nM
7,Cc1ccc(CN2CCC(C(=O)Nc3ccc(-c4cc5ccccc5[nH]4)cc3)CC2)o1,459 nM
8,O=C(Nc1ccsc1C(=O)NC1CCCCC1)c1ccc(F)cc1,1040 nM
9,CC(C)(C)c1ccc(O)c(CNC2CCCCC2)c1,181 nM
10,CCOc1ccc(CN2CCN(CC(O)COc3ccc(OCC(O)CN4CCN(Cc5ccc(OCC)cc5)CC4)cc3)CC2)cc1 (stereo unspecified),948 nM
11,COc1ccc(N2CCN(C(CNC(=O)C3CCCCC3)c3ccc4c(c3)OCO4)CC2)cc1 (stereo unspecified),569 nM
12,C=CC12CCN(CC1)C(C(O)c1ccnc3ccc(OC)cc13)C2 (stereo unspecified),418 nM
13,CCOc1ccccc1CNC(=O)C1c2ccccc2C(=O)N(CC(C)C)C1c1cccs1 (stereo unspecified),1220 nM
14,CC(C)(C)CC(C)(C)NCC(O)COc1ccc(Cl)cc1Cl (stereo unspecified),494 nM
15,CCOc1cccc2sc(N(Cc3cccnc3)C(=O)C3CCCCC3)nc12,2700 nM
16,CCC(C)NCC(O)(c1ccc(Cl)cc1)c1ccc(Cl)cc1 (stereo unspecified),551 nM
17,COc1cccc(O)c1CN1CCC2(CCCN(Cc3ccc(F)cc3)C2)C1 (stereo unspecified),502 nM
18,CC(C)c1ccc(CNCC(O)c2ccccc2)cc1 (stereo unspecified),1080 nM
19,CCCCCCC(O)(c1ccc(F)cc1)C(CN1CCOCC1)c1ccccc1 (stereo unspecified),3420 nM
20,Cc1cc(N2CCN(C3CCCC3)CC2)n2c(nc3ccccc32)c1C#N,916 nM
21,Cc1ccc(-c2cc(C(=O)Nc3ccc(S(=O)(=O)N4CCCCC4)cc3)[nH]n2)c(O)c1,2350 nM

# Source: ChEMBL document CHEMBL3392922, “MMV box screening in the Dd2 P. falciparum strain”
